Measured values from patent US20220105157A1, “Compositions and Methods for Promoting Angiogenesis in the Eye” (The Regents of the University of California, priority 2019, published 2022).

Legend:
[1] = system: bovine choroidal endothelial (BCE) cells; experiment: BCE endothelial cell proliferation assay (alamar blue); type: cell-based
Description: The bovine endothelial proliferation assays were performed essentially as previously described (63, 64). BCE (1×10^3 cells/well) or BRE (5×10^2 cells/well) cells were seeded in 96-well plates in the culture medium (DMEM-low glucose supplemented with 10% BCS, 2 mM glutamine and antibiotics) plus testing materials with a total volume of 200 μl per well. BAE cells were plated in 96-well plates at a density of 2×10^3 cells in the culture medium (DMEM-low glucose supplemented with 1% BCS and antibiotics) plus testing material with a total volume of 200 μl per well. HRME cells were seeded at a density of 1×10^3 cells/well in gelatin-coated 96-well plates in assay medium (DMEM-low glucose supplemented with 20% FBS and antibiotics) plus testing materials to make a total volume 200 μl per well. For assays involving antibodies or small-molecule inhibitors, inhibitors or vehicle controls were first added and then test materials were added one hour later. After 6 days (unless otherwise specified), cells were incubated with alamar blue for 4 h. Fluorescence was measured at 530 nm excitation wavelength and 590 nm emission wavelength. Each experiment was carried out in duplicate/triplicate and repeated at least three times.

[2] = system: retinal vasculature of mouse eyes; experiment: Intravitreal injection of recombinant proteins in mouse eyes, retinal vessel density; type: in vivo; conditions: for retinal microvessel density (CD31): 6-8 week old mice, intravitreal
Description: Male C57BL/6J mice (6-8 week and P5) were anesthetized with ketamine/Xylazine cocktail. The indicated amounts of recombinant LIF (Sigma, CAT #SRP9001) in 1 μl of PBS and PBS vehicle control were injected intravitreally with a 33-gauge Hamilton syringe. Seven (for adult mice) or 3 (for neonatal mice) days after injection, animals were euthanized, eyes were then enucleated and fixed in 4% paraformaldehyde (PFA) for 15 min. Choroid-sclera complexes and retinas were separated and anti-CD31 immunofluorescence (IF) or lectin labeling was performed to evidence the vasculature by whole mount staining of both retina and choroidal tissues or flat-mounts of retina. For CD31 IF, rat anti-mouse antibody (BD Biosciences, CAT #550274) was diluted 1:100 and incubated overnight at 4° C. After 4-hour incubation with the Alexa Fluor-488-conjugated anti-rat antibody (Life Technologies, CAT #A11006), whole mounts were imaged via the 488 nm channel using Keyence Microscope BZ-X710 (Keyence Corporation, Osaka, Japan) or A1R Confocal STORM super-resolution system (Nikon). For lectin staining, Dylight-488-labeled lectin (Vector Laboratories, CAT #DL-1174) was diluted at 1:200 and images were obtained using A1R Confocal STORM super-resolution system (Nikon). For Quantification of vascular density in choroids and retina was carried out by Image J. Student's t test was used for statistical analysis. Each experiment was repeated three times with similar results each time, and each treatment group consists of 4 or 5 individual samples in every experiment. All animal experimental procedures were approved by the Institutional Animal Care and Use Committee (IACUC) of the University of California San Diego and conducted in accordance with the guidelines of the Animal Care Program (ACP).
Optical coherence tomography angiography (OCTA) imaging of the retina of adult mice was performed 7 days after LIF injection, using a 1300 nm optical coherence tomography (OCT) system developed by Dr. R. K. Wang's group at University of Washington Seattle, in agreement with previously described methodology (66). Briefly, the swept laser operated in single longitude mode with a 90 nm bandwidth centered at 1300 nm and 200 kHz A-line rate was used to scan mouse retina and to generate images of vasculature in a field of view of 1.5×1.5 mm^2. 2500 B-frames were captured at 500 cross-sections with five repeated B-frames at each cross-section. To quantify the retinal vascular density, retinal and choroidal layers in 3D structure OCT scans were separated by the hyper-reflecting retinal pigment epithelium (RPE). Then the en face maximum intensity projection was generated. The vessel density was then determined by calculating the percentages of vessel-covered area in total area of view using the ImageJ software.

BAE cells = experiment: Gene and protein expression in LIF-treated BAE cells (RNA-seq, qRT-PCR, cathepsin L ELISA); type: cell-based, bovine
Description: VEGF and LIF levels in LN-229 CM samples were determined by a human VEGF ELISA kit (R&D Systems, CAT #DVE00) and a human LIF ELISA kit (Biolegend, CAT #443507) according to manufacturers' instructions, respectively. Cathepsin L levels in BAE cells were measured using a bovine cathepsin L ELISA kit (MyBioSource, Inc, CAT #MBS2887609) per manufacturer's instructions.
(§1) BCE and BAE cells, after the indicated treatments, were lysed with Trizol reagent (Invitrogen, CAT #15596026) and subjected to RNA extraction following manufacturer's instructions. RNA concentrations were determined with Nanodrop 2000 (ThermoFisher Scientific) and 1 μg of total RNAs were reverse-transcribed to cDNAs using the High-Capacity cDNA Reverse Transcription Kit (Applied Biosystems, CAT #4368814). Equal amounts (generally 10 ng/reaction) of cDNAs were subjected to qRT-PCR analyses using the TaqMan Fast Advanced Master Mix (Applied Biosystems, CAT #4444557) and the ViiA7 Real-time PCR system. Relative mRNA levels of the examined genes were normalized to the internal control RPLP0 (Ribosomal Protein Lateral Stalk Subunit P0), determined by comparing with control sample group, and reported as fold changes. TaqMan gene expression assay probes were used: bovine RPLP0 (Bt03218086_ml), bovine STAT3 (Bt03259865_ml), bovine CTSL1 (Bt03257307_ml and Bt03257309_ml), bovine CTSB (Bt03259161_ml), bovine MYC (Bt03260377_ml), bovine JunB (Bt03246919_s1), bovine CCNA2 (Bt03240503_g1), bovine CCNB1 (Bt03237853_g1), and bovine PIM1 (Bt03212957_ml). The experiment was carried out in triplicate and repeated three times.

BCE cells = experiment: Gene expression in LIF-treated BCE cells (RNA-seq, qRT-PCR); type: cell-based, bovine
Description: as §1

Substance: LIF: recombinant human leukemia inhibitory factor, a member of the IL-6 family of cytokines
- stimulation of BCE cell growth (mitogenic activity) [1]: stimulated growth of BCE cells
- retinal vascular density in neonatal mice (lectin) ([2]; 5-day postnatal (P5) mice, intravitreal LIF 50 ng, three days after the injection): significant increase in vascular density
- retinal microvessel density (CD31) ([2]; 10 ng per eye, 7 days): significantly increased
- retinal microvessel density (CD31) ([2]; 100 ng, 7 days): less effective
- vessel density in retina, CD31 immunofluorescence in cross sections of mouse eyes ([2]; adult mice, intravitreal LIF 10 ng, 7 days): increased vessel density
- retinal vessel density by OCTA ([2]; adult mice, intravitreal LIF 50 ng, 7 days): significant increases
- upregulation of IGFBP3 (BAE cells; BAE cells incubated with LIF for 6 hours, RNA-seq, confirmed by qRT-PCR): approximately 8 fold
- cyclin A/B expression (BAE cells; BAE cells, LIF 10 ng/ml 24 hours, qRT-PCR): downregulation
- CTSB (cathepsin B) levels (BAE cells; BAE cells, LIF 24 hours): not CTSB
- CTSL (cathepsin L) mRNA and protein levels (BAE cells; BAE cells, LIF 24 hours): dramatically upregulated
- PIM1 expression (BAE cells; BAE cells, LIF treatment): induction
- upregulation of IGFBP3 (BCE cells; BCE cells incubated with LIF for 6 hours, RNA-seq): not in BCE cells
- MYC expression (BCE cells; BCE cells, LIF treatment): upregulation
- cathepsin L mRNA (CTSL) levels (BCE cells; BCE cells, vehicle or LIF, qRT-PCR): not detectable
